Data on 14 compounds can be found in patent publication US5955501A, “Protein kinase C modulators O” (priority 1995, dated 1999).

In assay [1] the test system is diacylglycerol/phorboid-type binding sites in mouse skin and in purified preparations of protein kinase C isotypes. As to conditions: Dunn and Blumberg; Ryves et al. 1991; cited from earlier work.
The subject of another assay is HIV. As to the kind of experiment: Anti-HIV activity in HIV-infected human peripheral blood lymphocytes (supernatant viral RNA and p24 core protein). The format is cell-based. As to conditions: Human immunodeficiency virus 1, Lymphocyte. On the procedure:
Human peripheral blood lymphocytes were isolated from the buffy coat fractions of blood donations. The lymphocytes were then stimulated with 5 μg/ml of phytohemagglutinin for 48 hours. Prior to infection with HIV, the lymphocytes were washed and resuspended in mitogen-free medium. On day 0 the cells were infected with HIV and were cultured for four days in the presence or absence of graded concentrations of 20-deoxy-20-chlorophorbol 12,13-bis[(2',4'-difluorophenyl)acetate]. On days 3 and 4 the supernatant levels of total viral RNA and viral core protein p24 were determined at each drug concentration and dose-response curves were used to determine the concentration of drug giving 50% inhibition of production of viral RNA and of p24 core protein. At four days these ED50 values were less than 100 pM for both RNA and p24.
In a manner similar to Example 111, the anti-HIV ED50 values for RNA [drug concentration is in brackets] for the following diterpenoid compounds were determined from dose-response curves or by estimation from one or more experimental drug concentrations.
In a manner similar to Example 111, the anti-HIV ED50 values for RNA [drug concentration is in brackets] for the following indolactam-type compounds were determined from dose-response curves or by estimation from one or more experimental drug concentrations, data giving percent inhibition of viral RNA production at selected concentrations appear in parentheses:
In a manner similar to Example 111, the anti-HIV ED50 values for RNA [drug concentration is in brackets] for the following diacylglycero-type compounds were determined from dose-response curves or by estimation from one or more experimental drug concentrations; data giving percent inhibition of viral RNA production at selected concentrations appear in parentheses: […]

Assay [2] has as its system T-24 human bladder carcinoma cells. As to the kind of experiment: Anti-cancer activity: methylene blue cell growth assay. Conditions: 5-6 days incubation, methylene blue staining, read-out: IC50 (drug concentration which leads to 50% of cells per well compared to control cultures). In kind it is cell-based. Here is the method: T-24 human bladder carcinoma cells were cultured in Eagle's minimal essential medium supplemented with 5% fetal bovine serum. Cells (1,000) were seeded into 96-well microtiter plates and incubated overnight. Serial dilutions of 20-deoxy-20(2'-hydroxyethylthio)phorbol 12-myristate 13-acetate (dissolved in DMSO and then diluted with culture medium) were added to the wells on day 1. The plates were incubated for 5-6 days to allow the control cultures to undergo at least 3 cell divisions. After the incubation period, the cells were fixed with glutaraldehyde, washed with water and stained with 0.05% methylene blue. After washing the dye was eluted with 3% HCl. The optical density per well was measured at 665 nm and compared using the formula:(OD Test-OD Start)/(OD Control-OD Start)×100.

The subject of assay [3] is phorbol 12-myristate 13-acetate induced ear inflammation/erythema. The assay can be described thus: Mouse ear inflammation test: inhibition of phorbol 12-myristate 13-acetate induced inflammation/erythema. In kind it is in vivo, mice. Here is the method: Method: A stock solution of 300 pmoles of the standard inflammatory compound phorbol 12-myristate 13-acetate per 5 μL acetone was prepared. This solution was used to prepare four-fold dilutions of 20-deoxy-20-(2'-hydroxyethylthio)phorbol 12-myristate 13-acetate, prepared as in Example 3, covering concentrations of the latter ranging from 4 to 64,000 pmoles per 5 μL.

Assay [4] deals with HL-60 promyelocytic leukemia cells. The assay can be described thus: Anti-leukemic activity: MTT cell growth assay. The format is cell-based. As to conditions: Homo sapiens, HL-60, 192 h, 8 days incubation, read-out: IC50 (drug concentration which leads to 50% of cells per well compared to control cultures). Here is the method:
HL-60 promyelocytic leukemia cells were cultured in RPMI 1640 medium supplemented with 10% fetal bovine serum. Cells (7,500) were seeded into 96-well microtiter plates and incubated overnight. Serial dilutions of 20-deoxy-20-(2'-hydroxyethylthio)phorbol 12-myristate 13-acetate (dissolved in DMSo and then diluted with culture medium) were added to the wells on day 1. The plates were incubated for 8 days to allow the control cultures to undergo at least 3 cell divisions. The cell growth was monitored by using the calorimetric MTT (tetrazolium) assay [Mosmann, T., J. Immunol. Meth. 65: 55-63 (1983)]. After the incubation period, the cells were washed with phosphate-buffered saline in the microtiter plate. DMSO was then added to each well and the dish was put on a shaker for 20 min. The optical density was measured at 540 nm and compared using the formula:(OD Test OD Start)/(OD Control - OD Start) x 100.

Assay [5] is described as follows: Anti-viral properties (test not described at the place).
The next assay deals with diacylglycerol site. As to the kind of experiment: Diacylglycerol site binding activity (test not described at the place).
In assay [6] the test system is Human RPMI-7272 melanoma cells. As to the kind of experiment: Anti-melanoma activity: inhibition of cell doublings. Conditions: 72 h of exposure, read-out: ID50 (concentration of drug required to inhibit cell doublings by 50%). In kind it is cell-based. Here is the method: Human RPMI-7272 melanoma cells were grown in the standard culture medium under normal incubation conditions. On day 1 the cells were cultured in the absence (control) or presence of graded concentrations (3-100 μg/ml) of 20-deoxy-20-(2'-hydroxyethylthio)phorbol 12-myristate 13-acetate in separate tubes. On day 4 after 72 h of exposure the number of cells in each tube was measured and the number of cell doublings determined. The drug treated tubes were compared to the control tube.

Where [7] appears, read: from dose-response curves or by estimation from one or more experimental drug concentrations, read-out: anti-HIV ED50 for RNA.

Read-outs that look alike come from different tables or passages of the source.

For the compound `CCCC(=O)O[C@@H]1[C@@H](C)[C@@]2(O)[C@@H](C=C(CO)C[C@]3(O)C(=O)C(C)=C[C@@H]23)[C@@H]2C(C)(C)[C@]12OC(=O)CCC` [phorbol 12,13-dibutyrate], in assay [1], the “selectivity factor in dissociation constant among the different binding sites” value is listed as 10-1000. With `CC1=C[C@H]2[C@@]3(O)[C@H](C)C[C@]4(OC(=O)Cc5ccccc5)[C@H]([C@@H]3C=C(CO)C[C@]2(O)C1=O)C4(C)C` [12-deoxyphorbol 13-phenylacetate], the “selectivity factor in dissociation constant among the different binding sites” value in assay [1] is 10-1000. Consider `CCCCCCCCCCCCCC(=O)O[C@@H]1[C@@H](C)[C@@]2(O)[C@@H](C=C(CC#N)C[C@]3(O)C(=O)C(C)=C[C@@H]23)[C@@H]2C(C)(C)[C@]12OC(C)=O` [20-deoxy-20-cyanophorbol 12-myristate 13-acetate], for which, in the assay with HIV (setting [7]), the EC50 is 1.5 µM. Also, in assay [2], the IC50 was 2 µM. For the compound `C=C1C[C@]2(O)C(=O)C(C)=C[C@H]2[C@@]2(O)[C@H](C)[C@@H](OC(=O)CCCCCCCCCCCCC)[C@]3(OC(C)=O)[C@H]([C@@H]2C1CO)C3(C)C` (stereo partly drawn) [12-β-myristoyloxy-13-acetoxy-4,9-dihydroxy-7-hydroxymethyl-1,6(20)-tigliadien-3-one], the anti-inflammatory activity result in assay [3] (general statement in the description, test not named there) is “good anti-inflammatory activity”. Further, the IC50 in assay [2] stood at 5.5 µM; in assay [4] it was 5.2 µM. In the case of `CCCCCCCCCCCCCC(=O)O[C@@H]1[C@@H](C)[C@@]2(O)[C@@H](C=C(CCC3=C[C@H]4[C@@H]5C(C)(C)[C@]5(OC(C)=O)[C@H](OC(=O)CCCCCCCCCCCCC)[C@@H](C)[C@]4(O)[C@@H]4C=C(C)C(=O)[C@@]4(O)C3)C[C@]3(O)C(=O)C(C)=C[C@@H]23)[C@@H]2C(C)(C)[C@]12OC(C)=O` [20-Deoxy-20-[20'-deoxyphorbol-20'-yl(12'-myristate 13'-acetate)]phorbol 12-Myristate 13-Acetate], the anti-viral properties result in assay [5] is listed as “anti-viral properties”. Further, the “diacylglycerol site binding activity” value in the assay with diacylglycerol site is on record as “still exhibits diacylglycerol site binding activity”.

As for `CC1=C[C@H]2[C@@]3(O)[C@H](C)C[C@]4(OC(=O)C(C)C)[C@H]([C@@H]3C=C(CO)C[C@]2(O)C1=O)C4(C)C` [12-deoxyphorbol 13-isobutyrate], the “selectivity factor in dissociation constant among the different binding sites” value in assay [1] is given as 10-1000. Regarding `CCCCCCCCCCCCCC(=O)O[C@@H]1[C@@H](C)[C@@]2(O)[C@@H](C=C(COC(=O)NC)C[C@]3(O)C(=O)C(C)=C[C@@H]23)[C@@H]2C(C)(C)[C@]12OC(C)=O` [phorbol 12-myristate 13-acetate 20-methylcarbamate], the IC50 in assay [2] amounted to 6.3 µM; in assay [4], 2.6 µM.

As to thymeleatoxin, the “selectivity factor in dissociation constant among the different binding sites” value in assay [1] is recorded as 10-1000.

As to `CC1=C[C@H]2[C@@]3(O)[C@H](C)[C@@H](OC(=O)Cc4ccc(F)cc4F)[C@]4(OC(=O)Cc5ccc(F)cc5F)[C@H]([C@@H]3C=C(CCl)C[C@]2(O)C1=O)C4(C)C` [20-deoxy-20-chlorophorbol 12,13-bis[(2',4'-difluorophenyl)acetate]], the EC50 in the assay with HIV (96 h, supernatant total viral RNA, at four days, read-out: ED50, concentration of drug giving 50% inhibition of production of viral RNA) is less than 0.0001 µM; in the assay with HIV (96 h, supernatant viral core protein p24, at four days, read-out: ED50, concentration of drug giving 50% inhibition of production of p24 core protein) it was less than 0.0001 µM.

On to `CCCCCCCCCCCCCC(=O)O[C@@H]1[C@@H](C)[C@@]2(O)[C@@H](C=C(CSCCO)C[C@]3(O)C(=O)C(C)=C[C@@H]23)[C@@H]2C(C)(C)[C@]12OC(C)=O` [20-deoxy-20-(2'-hydroxyethylthio)phorbol 12-myristate 13-acetate], for which the IC50 in assay [6] turned out to be 42 µM; in assay [2], 13 µM; in assay [4] it was 5.4 µM. Moreover, the “inhibition of phorbol 12-myristate 13-acetate induced ear inflammation/erythema” value in assay [3] (applied with 300 pmoles phorbol 12-myristate 13-acetate per 5 μL acetone to inside of right ear, observed 1 to 48 hours) was “Inhibition of the phorbol 12-myristate 13-acetate induced inflammation was observed at the medium and higher concentrations”.

Regarding `COC(=O)C1=C[C@H]2[C@@H]3C(C)(C)[C@]3(OC(=O)Cc3ccc(F)cc3F)[C@H](OC(=O)Cc3ccc(F)cc3F)[C@@H](C)[C@]2(O)[C@@H]2C=C(C)C(=O)[C@@]2(O)C1` [6-deshydroxymethyl-6-methoxycarbonylphorbol 12,13-bis[(2',4'-difluorophenyl)acetate]], the EC50 in the assay on HIV (setting [7]) was 1.6 µM. As for `CC1=C[C@H]2[C@@]3(O)[C@H](C)[C@@H](OC(=O)Cc4ccc(F)cc4F)[C@]4(OC(=O)Cc5ccc(F)cc5F)[C@H]([C@@H]3C=C(CSCCS)C[C@]2(O)C1=O)C4(C)C` [20-deoxy-20-(2'-mercaptoethylthio)phorbol 12,13-bis[(2',4'-difluorophenyl)acetate]], the EC50 in the assay on HIV (setting [7]) is 0.05 µM. `CC1=C[C@H]2[C@@]3(O)[C@H](C)[C@@H](OC(=O)Cc4ccc(F)cc4F)[C@]4(OC(=O)Cc5ccc(F)cc5F)[C@H]([C@@H]3C=C(C=NO)C[C@]2(O)C1=O)C4(C)C` [20-deoxy-20-hydroximinophorbol 12,13-bis[(2',4'-difluorophenyl)acetate]]: in the assay on HIV (setting [7]), the EC50 is 5.5 µM. Turning to `CC1=C[C@H]2[C@@]3(O)[C@H](C)[C@@H](OC(=O)Cc4c(F)c(F)c(F)c(F)c4F)[C@]4(OC(=O)Cc5c(F)c(F)c(F)c(F)c5F)[C@H]([C@@H]3C=C(CF)C[C@]2(O)C1=O)C4(C)C` [20-deoxy-20-fluorophorbol 12,13-bis[(pentafluorophenyl)acetate]], the EC50 with HIV (setting [7]) was 0.001 µM.
